According to article PMC6755085, “Cyclic oligoadenylate signalling mediates Mycobacterium tuberculosis CRISPR defence” (Nucleic Acids Research, 2019):

Molecular target: T1, TsuCsx1 (Thioalkalivibrio sulfidiphilus, UniProt B8GSI1)
T1 construct: gene Tgr7_1803; full-length; N-terminal His8 fusion (pEV5HisTEV), no tag cleavage described; synthetic gene; E. coli C43; dimer
Experiment: activation of cleavage of […]-labelled RNA, denaturing PAGE
Type: biochemical
Settings: synthetic cA4, 1 µM; 0.5 µM TsuCsx1 dimer; 20 mM Tris-HCl, 150 mM NaCl, 1 mM DTT, pH 7.5; 35 °C; activator

T1 sequence (B8GSI1 entry or part of it): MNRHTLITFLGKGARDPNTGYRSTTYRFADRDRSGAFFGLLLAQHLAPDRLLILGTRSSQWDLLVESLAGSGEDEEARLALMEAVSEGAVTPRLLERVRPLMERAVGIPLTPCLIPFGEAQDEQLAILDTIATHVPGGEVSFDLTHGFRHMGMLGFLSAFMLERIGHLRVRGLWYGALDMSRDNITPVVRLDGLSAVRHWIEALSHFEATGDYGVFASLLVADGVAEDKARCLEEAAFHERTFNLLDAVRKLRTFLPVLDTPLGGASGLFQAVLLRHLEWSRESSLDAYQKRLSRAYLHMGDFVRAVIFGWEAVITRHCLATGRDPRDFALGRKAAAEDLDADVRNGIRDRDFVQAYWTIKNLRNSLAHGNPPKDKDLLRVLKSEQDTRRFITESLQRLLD

Nc1ncnc2c1ncn2[C@@H]1O[C@@H]2COP(=O)(O)O[C@H]3[C@@H](O)[C@H](n4cnc5c(N)ncnc54)O[C@@H]3COP(=O)(O)O[C@H]3[C@@H](O)[C@H](n4cnc5c(N)ncnc54)O[C@@H]3COP(=O)(O)O[C@H]3[C@@H](O)[C@H](n4cnc5c(N)ncnc54)O[C@@H]3COP(=O)(O)O[C@H]2[C@H]1O [cA4]
activation of cleavage of 32P-labelled RNA, denaturing PAGE: TsuCsx1 was strongly activated by synthetic cA4 but not by cA6
